Laboratory results reported in ChEMBL document CHEMBL4396919, “Permeability of Cyclic Peptide Macrocycles and Cyclotides and Their Potential as Therapeutics” (ACS Med Chem Lett, 2019).
*1 amine or outer side, *2 acyl side, *3 side chain or, on linkers, in order; H or OH if unused. Where a SMILES comes first, the peptide text is derived from it. [ ]: non-standard residue; d: D form. Ile(ψThz) = CC[C@H](C)[C@H](N[*:1])c1nc(C(=O)[*:2])cs1; NMeF = CN[C@@H](Cc1ccccc1)C(=O)O; Tle = CC(C)(C)[C@H](N)C(=O)O

How the values were obtained:
in vivo = details: Wistar, rat, po, 10 mg/kg
in vitro = details: dog, MDCK
Description: Permeability in RRCK cells

| SMILES | bioavailability at 8 h (in vivo) | Papp (in vitro) |
| --- | --- | --- |
| CC[C@H](C)[C@@H]1NC(=O)[C@@H]2CCCN2C(=O)[C@H](Cc2ccccc2)N(C)C(=O)[C@H](C(C)(C)C)NC(=O)c2csc(n2)[C@H]([C@@H](C)CC)NC(=O)[C@@H]2CCCN2C1=O (cyclo(IP[Ile(ψThz)][Tle][NMeF]P)) | 21% |  |
| CC[C@H](C)[C@@H]1NC(=O)[C@@H]2CCCN2C(=O)[C@H](Cc2ccccc2)NC(=O)[C@H](C)NC(=O)c2csc(n2)[C@H]([C@@H](C)CC)NC(=O)[C@@H]2CCCN2C1=O (cyclo(AFPIP[Ile(ψThz)])) | 7% | 0.7 ×10⁻⁶ cm/s |
